Data from patent US8354441B2, “Oxazoline derivatives” (Hoffmann-La Roche Inc., priority 2009, dated 2013).

What was measured:
mouse TAAR1 = molecular target: T1, mouse TAAR1 (Mus musculus, UniProt Q923Y8); assay: TAAR1 radioligand binding with [3H]-rac-2-(1,2,3,4-tetrahydro-1-naphthyl)-2-imidazoline, membranes of stably transfected HEK293 cells; details: first value of the cell, read-out: Ki (μM) mouse/rat: mouse
T1 construct: expressed in transfected cells; host or cells: HEK293 (ATCC # CRL-1573), stably transfected with pIRESneo2 expression plasmid
Outline: (§1)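 Competition binding: competitors spanning 10 pM–30 μM displace 60 nM [3H]-rac-2-(1,2,3,4-tetrahydro-1-naphthyl)-2-imidazoline from stably transfected HEK293 membranes (mouse or rat receptor), 30 min, 4 °C, pH 7.0 buffer with Mg2+/Ca2+. Bound label counted after GF/C filtration; 10 μM unlabelled ligand defines non-specific binding.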

rat TAAR1 = molecular target: T2, rat TAAR1 (Rattus norvegicus, UniProt Q923Y9); assay: as above; details: second value of the cell, read-out: Ki (μM) mouse/rat: rat
T2 construct: expressed in transfected cells; host or cells: HEK293 (ATCC # CRL-1573), stably transfected with pIRESneo2 expression plasmid
Outline: as §1

T2 sequence (Q923Y9 whole entry): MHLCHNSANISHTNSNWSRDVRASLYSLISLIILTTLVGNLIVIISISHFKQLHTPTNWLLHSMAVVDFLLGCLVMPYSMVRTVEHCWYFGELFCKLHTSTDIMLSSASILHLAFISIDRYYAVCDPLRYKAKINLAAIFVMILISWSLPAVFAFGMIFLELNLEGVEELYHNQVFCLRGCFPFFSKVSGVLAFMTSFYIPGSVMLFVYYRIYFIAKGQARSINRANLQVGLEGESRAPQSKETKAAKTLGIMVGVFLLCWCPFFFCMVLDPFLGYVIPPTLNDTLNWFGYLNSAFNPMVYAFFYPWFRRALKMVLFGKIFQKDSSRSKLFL
T1 sequence (Q923Y8 whole entry): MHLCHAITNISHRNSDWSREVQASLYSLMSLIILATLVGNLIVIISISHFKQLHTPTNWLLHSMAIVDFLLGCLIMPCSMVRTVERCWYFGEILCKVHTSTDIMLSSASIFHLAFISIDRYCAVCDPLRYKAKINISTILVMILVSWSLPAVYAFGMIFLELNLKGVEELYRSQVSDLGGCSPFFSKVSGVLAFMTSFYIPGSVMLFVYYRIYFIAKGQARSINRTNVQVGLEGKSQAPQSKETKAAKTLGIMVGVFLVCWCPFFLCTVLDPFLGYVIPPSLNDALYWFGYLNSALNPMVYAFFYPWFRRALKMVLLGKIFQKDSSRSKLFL

Row | Ki (mouse TAAR1) [µM] | Ki (rat TAAR1) [µM] | SMILES
1 | 0.0084 | 0.0019 | Cc1cc(C(=O)Nc2ccc(CC[C@H]3COC(N)=N3)cc2)ccn1 [Example 172, (S)-N-(4-(2-(2-Amino-4,5-dihydrooxazol-4-yl)ethyl)phenyl)-2-methylisonicotinamide]
2 | 0.0014 | 0.0014 | NC1=N[C@@H](CCc2ccc(NC(=O)c3ccnc(Cl)c3)cc2)CO1 [Example 173, (S)-N-(4-(2-(2-Amino-4,5-dihydrooxazol-4-yl)ethyl)phenyl)-2-chloroisonicotinamide]
3 | 0.0035 | 0.0016 | NC1=N[C@@H](CCc2ccc(NC(=O)c3ccnc(Cl)c3F)cc2)CO1 [Example 174, (S)-N-(4-(2-(2-Amino-4,5-dihydrooxazol-4-yl)ethyl)phenyl)-2-chloro-3-fluoroisonicotinamide]
4 | 0.0008 | 0.0009 | NC1=N[C@@H](CCc2ccc(NC(=O)c3cc(Cl)nc(Cl)c3)cc2)CO1 [Example 175, (S)-N-(4-(2-(2-Amino-4,5-dihydrooxazol-4-yl)ethyl)phenyl)-2,6-dichloroisonicotinamide]
5 | 0.0004 | 0.0004 | CCc1ccc(C(=O)Nc2ccc(CC[C@H]3COC(N)=N3)cc2)nc1 [Example 178, (S)-N-(4-(2-(2-Amino-4,5-dihydrooxazol-4-yl)ethyl)phenyl)-5-ethylpicolinamide]
6 | 0.0059 | 0.0023 | Cc1nc(C(=O)Nc2ccc(CC[C@H]3COC(N)=N3)cc2)c(C)o1 [Example 179, (S)-N-(4-(2-(2-Amino-4,5-dihydrooxazol-4-yl)ethyl)phenyl)-2,5-dimethyloxazole-4-carboxamide]
7 | 0.0029 | 0.001 | NC1=N[C@@H](CCc2ccc(N3Cc4ccc(Cl)cc4C3=O)cc2)CO1 [Example 186, 2-{4-[2-((S)-2-Amino-4,5-dihydro-oxazol-4-yl)-ethyl]-phenyl}-6-chloro-2,3-dihydro-isoindol-1-one]
8 | 0.0008 | 0.0018 | CC(C)c1sc(N(C)C)nc1C(=O)Nc1ccc(CC[C@H]2COC(N)=N2)cc1 [Example 189, (S)-N-(4-(2-(2-Amino-4,5-dihydrooxazol-4-yl)ethyl)phenyl)-2-(dimethylamino)-5-isopropylthiazole-4-carboxamide]
9 | 0.0041 | 0.004 | COc1cc(C(=O)Nc2ccc(CC[C@H]3COC(N)=N3)cc2)nc(OC)n1 [Example 190, (S)-N-(4-(2-(2-Amino-4,5-dihydrooxazol-4-yl)ethyl)phenyl)-2,6-dimethoxypyrimidine-4-carboxamide]
10 | 0.0042 | 0.0021 | Cc1ocnc1C(=O)Nc1ccc(CC[C@H]2COC(N)=N2)cc1 [Example 191, (S)-N-(4-(2-(2-Amino-4,5-dihydrooxazol-4-yl)ethyl)phenyl)-5-methyloxazole-4-carboxamide]
11 | 0.0091 | 0.0035 | Cn1cc(Cl)c(C(=O)Nc2ccc(CC[C@H]3COC(N)=N3)cc2)n1 [Example 194, (S)-N-(4-(2-(2-Amino-4,5-dihydrooxazol-4-yl)ethyl)phenyl)-4-chloro-1-methyl-1H-pyrazole-3-carboxamide]
12 | 0.0037 | 0.0023 | NC1=N[C@@H](CCc2ccc(NC(=O)c3ccn(C(F)F)n3)cc2)CO1 [Example 195, (S)-N-(4-(2-(2-Amino-4,5-dihydrooxazol-4-yl)ethyl)phenyl)-1-(difluoromethyl)-1H-pyrazole-3-carboxamide]
13 | 0.003 | 0.0049 | CC(C)(C)c1cc(C(=O)Nc2ccc(CC[C@H]3COC(N)=N3)cc2)ccn1 [Example 197, (S)-N-(4-(2-(2-Amino-4,5-dihydrooxazol-4-yl)ethyl)phenyl)-2-tert-butylisonicotinamide]
14 | 0.0036 | 0.0029 | CC(C)c1cc(C(=O)Nc2ccc(CC[C@H]3COC(N)=N3)cc2)ccn1 [Example 198, (S)-N-(4-(2-(2-Amino-4,5-dihydrooxazol-4-yl)ethyl)phenyl)-2-isopropylisonicotinamide]
15 | 0.0027 | 0.0037 | NC1=N[C@@H](CCc2ccc(NC(=O)c3ccnc(-c4ccncc4)c3)cc2)CO1 [Example 199, (S)-N-(4-(2-(2-Amino-4,5-dihydrooxazol-4-yl)ethyl)phenyl)-2,4′-bipyridine-4-carboxamide]
16 | 0.0005 | 0.0007 | Cc1ccc(C(=O)Nc2ccc(CC[C@H]3COC(N)=N3)cc2)s1 [Example 201, (S)-N-(4-(2-(2-Amino-4,5-dihydrooxazol-4-yl)ethyl)phenyl)-5-methylthiophene-2-carboxamide]
17 | 0.0007 | 0.0004 | Cc1cc(C(=O)Nc2ccc(CC[C@H]3COC(N)=N3)cc2)sc1C [Example 202, (S)-N-(4-(2-(2-Amino-4,5-dihydrooxazol-4-yl)ethyl)phenyl)-4,5-dimethylthiophene-2-carboxamide]

Row | Ki (mouse TAAR1) [µM] | Ki (rat TAAR1) [µM] | SMILES
18 | 0.0008 | 0.0014 | CCc1nc(OC)cc(C(=O)Nc2ccc(CC[C@H]3COC(N)=N3)cc2)n1 [Example 203, 2-Ethyl-6-methoxy-pyrimidine-4-carboxylic acid {4-[2-((S)-2-amino-4,5-dihydro-oxazol-4-yl)-ethyl]-phenyl}-amide]
19 | 0.0007 | 0.0005 | C[C@@H]1OC(N)=N[C@H]1CCc1ccc(NC(=O)c2ccc(Cl)cc2)cc1 [Example 205, N-(4-(2-((4S,5S)-2-Amino-5-methyl-4,5-dihydrooxazol-4-yl)ethyl)phenyl)-4-chlorobenzamide]
20 | 0.0076 | 0.0013 | C[C@H]1OC(N)=N[C@H]1CCc1ccc(NC(=O)c2ccc(Cl)cc2)cc1 [Example 206, N-(4-(2-((4S,5R)-2-Amino-5-methyl-4,5-dihydrooxazol-4-yl)ethyl)phenyl)-4-chlorobenzamide]
21 | 0.0007 | 0.0011 | COc1cc(C(=O)Nc2ccc(CC[C@H]3COC(N)=N3)cc2)nc(C(C)C)n1 [Example 207, 2-Isopropyl-6-methoxy-pyrimidine-4-carboxylic acid {4-[2-((S)-2-amino-4,5-dihydro-oxazol-4-yl)-ethyl]-phenyl}-amide]
22 | 0.0028 | 0.0023 | CCc1cnc(C(=O)Nc2ccc(CC[C@H]3COC(N)=N3)cc2)cn1 [Example 208, (S)-N-(4-(2-(2-Amino-4,5-dihydrooxazol-4-yl)ethyl)phenyl)-5-ethylpyrazine-2-carboxamide]
23 | 0.0013 | 0.0035 | NC1=N[C@@H](CCc2ccc(NC(=O)c3cnc(C(F)(F)F)nc3C3CC3)cc2)CO1 [Example 209, (S)-N-(4-(2-(2-Amino-4,5-dihydrooxazol-4-yl)ethyl)phenyl)-4-cyclopropyl-2-(trifluoromethyl)pyrimidine-5-carboxamide]
24 | 0.0023 | 0.0024 | CCc1cncc(C(=O)Nc2ccc(CC[C@H]3COC(N)=N3)cc2)n1 [Example 211, (S)-N-(4-(2-(2-Amino-4,5-dihydrooxazol-4-yl)ethyl)phenyl)-6-ethylpyrazine-2-carboxamide]
25 | 0.0015 | 0.0022 | CCc1ocnc1C(=O)Nc1ccc(CC[C@H]2COC(N)=N2)cc1 [Example 213, (S)-N-(4-(2-(2-Amino-4,5-dihydrooxazol-4-yl)ethyl)phenyl)-5-ethyloxazole-4-carboxamide]
26 | 0.0011 | 0.0028 | NC1=N[C@@H](CCc2ccc(NC(=O)c3ncoc3C3CC3)cc2)CO1 [Example 214, (S)-N-(4-(2-(2-Amino-4,5-dihydrooxazol-4-yl)ethyl)phenyl)-5-cyclopropyloxazole-4-carboxamide]
27 | 0.0012 | 0.0038 | CC(C)c1ocnc1C(=O)Nc1ccc(CC[C@H]2COC(N)=N2)cc1 [Example 215, (S)-N-(4-(2-(2-Amino-4,5-dihydrooxazol-4-yl)ethyl)phenyl)-5-isopropyloxazole-4-carboxamide]
28 | 0.0027 | 0.0061 | Cc1nc(C(=O)Nc2ccc(CC[C@H]3COC(N)=N3)cc2)c(C(F)(F)F)o1 [Example 216, (S)-N-(4-(2-(2-Amino-4,5-dihydrooxazol-4-yl)ethyl)phenyl)-2-methyl-5-(trifluoromethyl)oxazole-4-carboxamide]
29 | 0.0051 | 0.0025 | CCc1nc(C(=O)Nc2ccc(CC[C@H]3COC(N)=N3)cc2)co1 [Example 217, (S)-N-(4-(2-(2-Amino-4,5-dihydrooxazol-4-yl)ethyl)phenyl)-2-ethyloxazole-4-carboxamide]
30 | 0.0014 | 0.0035 | CCOc1cnc(C(=O)Nc2ccc(CC[C@@H]3N=C(N)O[C@H]3C)cc2)cn1 [Example 218, 5-Ethoxy-pyrazine-2-carboxylic acid {4-[2-((4S,5S)-2-amino-5-methyl-4,5-dihydro-oxazol-4-yl)-ethyl]-phenyl}-amide]
31 | 0.0048 | 0.0037 | COc1cc(C(=O)Nc2ccc(CC[C@@H]3N=C(N)O[C@H]3C)cc2)nc(Cl)n1 [Example 219, 2-Chloro-6-methoxy-pyrimidine-4-carboxylic acid {4-[2-((4S,5S)-2-amino-5-methyl-4,5-dihydro-oxazol-4-yl)-ethyl]-phenyl}-amide]
32 | 0.0071 | 0.004 | Cc1ocnc1C(=O)Nc1ccc(CC[C@@H]2N=C(N)O[C@H]2C)cc1 [Example 222, 5-Methyl-oxazole-4-carboxylic acid {4-[2-((4S,5S)-2-amino-5-methyl-4,5-dihydro-oxazol-4-yl)-ethyl]-phenyl}-amide]
33 | 0.0011 | 0.0021 | C[C@@H]1OC(N)=N[C@H]1CCc1ccc(NC(=O)c2ccc(C(F)(F)F)cn2)cc1 [Example 226, 5-Trifluoromethyl-pyridine-2-carboxylic acid {4-[2-((4S,5S)-2-amino-5-methyl-4,5-dihydro-oxazol-4-yl)-ethyl]-phenyl}-amide]
